Data on two molecules can be found in patent publication US9724408B2, “Compositions and methods for activating stimulator of interferon gene-dependent signalling” (ADURO BIOTECH, INC., priority 2013, dated 2017).

Assay [1] relates to human STING variants (WT, REF, HAQ, AQ and Q). The assay can be described thus: IFNβ-LUC reporter in HEK293T cells expressing human STING alleles. It is filed as cell-based. Conditions: 10 μM, digitonin permeabilization, 6 hrs, FIG. 14. How it is done:
MSCV2.2 plasmids encoding hSTING(REF)-GFP, hSTING(WT)-GFP, hSTING(HAQ)-GFP, hSTING(Q)-GFP and mSTING(WT)-GFP were obtained from the Vance Laboratory at UC Berkeley. hSTING(AQ)-GFP was derived from hSTING(Q)-GFP using a QuickChange Site-Directed Mutagenesis kit (Stratagene). […] 1×10^4 HEK293T STING cells were seeded in 96-well plates and transiently transfected (using Lipofectamine 2000) with 50 ng of a human IFN-β reporter plasmid (pLuc-IFN-β) expressing the human IFN-β promoter upstream of a luciferase reporter and 10 ng of TK-renilla for normalization. 24 hours later, cells were stimulated with native and synthetic CDN derivative molecules using digitonin permeabalization to ensure uniform uptake. Each STING cell line was stimulated with 10 μM of cyclic [G(3′,5′)pA(3′,5′)p] (cGAMP), cyclic [G(2′,5′)pA(3′,5′)p] […] (RR-CDA), cyclic [A(2′,5′)pA(3′,5′)p] […] (RR-CDG), cyclic [G(2′,5′)pG(3′,5′)p] […] (ML RR-CDG) in 25 ul digitonin buffer (50 mM HEPES, 100 mM KCL, 3 mM MgCl2, 0.1 mM DTT, 85 mM Sucrose, 0.2% BSA, 1 mM ATP, 0.1 mM GTP, 10 ug/ml digitonin). After 20 min, the stimulation mixtures were removed and 200 ul of standard RPMI media was added. After stimulation for 6 hrs, cell lysates were prepared and reporter gene activity measured using the Dual Luciferase Assay System (Promega) on a Spectramax M3 luminometer.

In assay [2] the test system is natural killer (NK) cells, CD4+ and CD8+ T cells. Put plainly: Surface CD69 upregulation on lymphocytes after subcutaneous CDN (FACS). It is filed as in vivo, BALB/c mice. Conditions: 50, 5 and 0.5 μM in 100 μL, base of the tail, 24 hours, FIG. 11. How it is done:
To determine the relative ability of the derivative molecules to activate immune responses, CDN compounds were administered to 6-8 week old female BALB/c mice (in a total volume of 100 μL in HBSS) at doses of 50, 5 and 0.5 μM by subcutaneous injection into the base of the tail. Mice were assessed 24 hours later for lymphocyte immune cell activation by fluorescent activated cell sorting (FACS) for upregulation of surface CD69 expression on natural killer (NK) cells, CD4+ and CD8+ T cells, as compared to IgG1 isotype controls.

Assay [3] concerns CT26 colon carcinoma cells. The assay can be described thus: CT26 colon carcinoma flank tumor model, intratumoral CDN. Format: in vivo, BALB/c mice. Conditions: for complete inhibition of tumor growth of established CT26 tumors: every three days, three injections, 8 mice per group, FIG. 19B. How it is done: Either CT26 colon carcinoma cells (1×10^5 cells in 100 μL PBS) or 4T1 mammary carcinoma cells (1×10^5 cells in 100 μL PBS) were implanted subcutaneously on the flanks of 6-8 week old female BALB/c mice (8 mice per group). Treatments began when tumors reached a volume of approximately 75 mm^3, which was approximately day 14 post tumor implantation. The compounds Rp, Rp dithio cyclic [A(2′,5′)pA(3′,5′)p] (ML RR-CDA) or Rp, Rp dithio cyclic [G(2′,5′)pG(3′,5′)p] (ML RR-CDG) compounds (25 μg in a total volume of 40 μL HBSS), or HBSS vehicle control, and Rp, Rp dithio cyclic [A(2′,5′)pA(3′,5′)p] (ML RR-CDA) (50 μg in a total volume of 40 μL HBSS) or HBSS vehicle control, were administered by subcutaneous injection into the center of the tumor using a 27 gauge needle. Injections were repeated every three days, for a total of three intratumoral injections.
To determine whether the synthetic derivative CDN molecules elicit durable and effective anti-tumor T-cell immunity, 6-8 week old female BALB/c mice (8 mice per group) were implanted with CT26 colon carcinoma cells (1×10^5 cells in 100 μL PBS). Mice were treated with Rp, Rp dithio cyclic [A(2′,5′)pA(3′,5′)p] (ML RR-CDA) compound ([…] in a total volume of 40 μL HBSS) or HBSS vehicle control, and tumor growth was monitored as per previous example. Mice were bled on day 18 post tumor implantation and PBMCs were isolated by Ficoll gradient (Miltenyi Biotech). 5×10^4 PBMCs were stimulated overnight in an IFNγ ELISpot assay with media alone (unstimulated), or with 1 μM of the endogenous H-2 L^d-restricted tumor rejection antigen AH1 peptide in the presence of 1×10^5 naïve splenocytes as feeder cells. IFN-γ ELISpot plates were developed and quantified using a CTL plate reader and ImmunoSpot software. On day 55 post tumor implantation, surviving mice and age-matched naïve control mice were implanted on the contralateral flank with either CT26 or 4T1 (both 1×10^5 cells in 100 μL PBS) tumor cells (4 mice per group), and monitored for tumor growth.

Assay [4] has as its system B16 melanoma cells. The assay can be described thus: B16 melanoma tumor model in STING-deficient mice, intratumoral CDN. It is filed as in vivo, goldenticket STING−/− mice. The note with it: ML RR-CDG 25 μg, ML RR-CDA 50 μg, CpG 1668 50 μg, three injections, FIG. 20B. How it is done: To determine whether the effects of the derivative molecules are STING-dependent, B16 melanoma cells (5×10^4 cells in 100 μL PBS) were implanted on the right flanks of 6-8 week old female goldenticket STING^−/− mice, or wild-type C57BL/6 control mice (5 mice per group). Treatments began when tumors reached a volume of approximately 75 mm^3, on day 14 post tumor implantation. The compounds administered were Rp, Rp dithio cyclic [G(2′,5′)pG(3′,5′)p] (ML RR-CDG) (25 μg in a total volume of 40 μL HBSS), Rp, Rp dithio cyclic [A(2′,5′)pA(3′,5′)p] (ML RR-CDA) (50 μg in a total volume of 40 μL HBSS), the TLR9 agonist CpG 1668 (50 μg in a total volume of 40 μL HBSS), or HBSS vehicle control. Mice were treated by subcutaneous injection into the center of tumor only using a 27 gauge needle. Injections were repeated every three days, for a total of three intratumoral injections.

Take `Nc1nc2c(ncn2[C@@H]2O[C@@H]3CO[P@@](O)(=S)O[C@@H]4[C@H](O)[C@@H](CO[P@@](O)(=S)O[C@H]3[C@H]2O)O[C@H]4n2cnc3c(=O)[nH]c(N)nc32)c(=O)[nH]1` [ML RR-CDG, dithio-[RP,RP]-cyclic-[G(2′,5′)pG(3′,5′)p]]: the “IFNβ reporter activity, all human STING alleles” value in assay [1] was “strongly induce IFNβ reporter activity by all human STING alleles”. Moreover, the “immune cell activation (surface CD69 on NK, CD4+ and CD8+ T cells)” value in assay [2] was “potent immune activation of NK and T cells in a dose-dependent manner”. Further, the “complete inhibition of tumor growth of established CT26 tumors” value in assay [3] is given as 7 out of 8. In addition, the “tumor growth in STING−/− mice” value in assay [4] is “not inhibited”.
As for `Nc1ncnc2c1ncn2[C@@H]1O[C@@H]2COP(O)(=S)O[C@@H]3C(O)[C@@H](COP(O)(=S)O[C@H]2[C@H]1O)O[C@H]3n1cnc2c(N)ncnc21` (stereo partly drawn) [ML RR-CDA, dithio-[RP, RP]-cyclic-[A(2′,5′)pA(3′,5′)p]], the “IFNβ reporter activity, all human STING alleles” value in assay [1] is listed as “strongly induce IFNβ reporter activity by all human STING alleles”. Further, in assay [2], the “immune cell activation (surface CD69 on NK, CD4+ and CD8+ T cells)” value was “induced NK and T cell activation, although to a lesser extent than the ML RR-CDG molecule”. Also, the “rejection of established CT26 colon carcinomas” value in assay [3] (50 mg in a total volume of 40 μL HBSS, FIG. 21A) was “all mice treated with ML RR-CDA rejected the growth of established CT26 colon carcinomas”. Further, the “complete inhibition of tumor growth of established CT26 tumors” value in assay [3] is reported as “completely inhibited tumor growth of all established CT26 tumors”. Besides, the “tumor growth in STING−/− mice” value in assay [4] is listed as “not inhibited”.
